The test system of experiment [1] is nucleotide pyrophosphatase activity. As to the kind of experiment: Nucleotide pyrophosphatase activity in mock fucosyltransferase assays. In kind it is biochemical. Particulars: 5 mM in standard assay cocktail. Here is the method:
ATP (5 mM) was therefore included in all assays to inhibit nucleotide pyrophosphatase activity. […] Each enzyme source was incubated for 1 to 4 h at 37° C. in 20 μl of standard assay cocktail, but in the absence of phenyl-β-D-galactoside. After the reactions were terminated, an aliquot of each was spotted on Whatman No. 3MM, fractionated by descending paper chromatography for 20 h in solvent B, and radioactivity was determined as described above. Authentic GDP-[^14C]fucose, [^14C]fucose-1-phosphate, and L-[^14C]fucose standards were chromatographed in parallel. This system separates GDP-fucose, fucose-1-phosphate, and fucose. It therefore allows quantitation of the amount of GDP-[^14C]fucose remaining at the end of the incubation, and thus provides an estimate of pyrophosphatase activity. Under the standard assay conditions, more than 97% of the GDP-[^14C]fucose initially present in each mock reaction remained unhydrolyzed and available for transglycosylation.

Experiment [2] has as its target T1, recombinant human (α1,2)fucosyltransferase (Homo sapiens, UniProt P19526).
T1 construct: expressed in transfected cells; host or cells: COS-1 cells, transient DEAE-dextran transfection, cell extracts
T1 sequence (P19526 1-365): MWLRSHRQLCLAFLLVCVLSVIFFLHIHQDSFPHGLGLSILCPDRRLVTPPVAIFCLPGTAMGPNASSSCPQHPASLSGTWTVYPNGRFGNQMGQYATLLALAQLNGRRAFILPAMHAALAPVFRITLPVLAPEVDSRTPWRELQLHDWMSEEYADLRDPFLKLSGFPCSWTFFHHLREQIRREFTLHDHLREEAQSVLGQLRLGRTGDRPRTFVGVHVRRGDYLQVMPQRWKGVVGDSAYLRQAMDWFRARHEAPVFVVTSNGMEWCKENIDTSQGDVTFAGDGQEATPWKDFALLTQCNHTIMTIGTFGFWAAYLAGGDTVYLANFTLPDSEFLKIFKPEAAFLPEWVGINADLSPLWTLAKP
As to the kind of experiment: Apparent Michaelis constants of recombinant (α1,2)fucosyltransferase expressed in COS-1 cells. In kind it is biochemical. As to the method: (§1) Fucosyltransferase assays were performed by a modification of the procedure reported by Chester et al. (Chester et al, Eur. J. Biochem., 69: 583-593, 1976). The standard assay contained GDP-[^14]fucose (3 μM) phenyl-β-D-galactoside (25 mM), ATP (5 mm) and the enzyme solution (1-10 μl) in 20 μl of 25 mM sodium phosphate buffer, pH 6.1. Based upon preliminary assays, amounts of added enzyme activities were adjusted to ensure that reactions were linear throughout the period of incubation (4 h for fractionated serum, 2 h for each of the other enzyme preparations). Under these conditions, less than 15% of the substrate was consumed during the incubation period. […] The final pH value of each reaction was determined with a micro pH probe. […] The concentration of GDP-fucose in this stock solution was calculated from the UV absorbance at 254 nm of an aliquot diluted in water. […] The supernatant contained virtually 100% of the radiolabelled product; this was collected, and an aliquot was used for separation and quantitation of the fucosylated product using the hydrophobic interaction chromatography method described below. […] This background acceptor “activity” was always less than 3% of the radioactivity incorporated into the phenyl-β-D-galactoside acceptor. […] Intercepts were calculated by the least squares estimation method. […]

For the next experiment, the system named is (α1,2)fucosyltransferase. The experiment can be described thus: (α1,2)Fucosyltransferase assay, substrate and effector tests. In kind it is biochemical. As to the method:
as §1

The subject of a further experiment is α-fucosidase activity. The experiment can be described thus: α-Fucosidase activity in enzyme preparations. Format: biochemical. Conditions: 10 mM; fractionated human serum and mouse intestinal mucosa extracts. Here is the method:
Each enzyme preparation was also tested for α-fucosidase activity that could hydrolyze the [^14C]fucosylphenyl-β-D-galactoside product and prevent accurate determination of (α1,2)fucosyltransferase activity. Enzyme preparations were incubated with purified [^14C]fucosylphenyl-β-D-galactoside (7000 cpm, 10 pmol) in fucosyltransferase assay buffer, but in the absence of added GDP-[^14C]fucose or phenyl-β-D-galactoside. These reactions were incubated at 37° C. for various times, and were then fractionated by the Sep-Pak method to determine the amount of remaining [^14C]fucosylphenyl-β-D-galactoside. Fractionated human serum and mouse intestinal mucosa extracts each contained significant α-fucosidase activity. […] Therefore 10 mM L-fucose was included when assaying these enzyme sources. Significant amounts of α-fucosidase activity were not detected in any of the other cell extracts; product hydrolysis never exceeded 1%/h under the standard assay conditions.

The test system of experiment [3] is monoclonal anti-H antibody. As to the kind of experiment: Hapten inhibition of anti-H antibody binding to mH1-12 cells (indirect immunofluorescence). Conditions: antibody preincubated with hapten, 20 mM. Also on record: species or system mouse. Here is the method:
Immunofluoroscence was performed on cells plated on 8-well tissue culture chamber slides (Lab-Tek). Cells were plated at a density of 5×10^4/well 24 h prior to analysis. Anti-H and anti-A primary antibodies were diluted in PBS containing bovine serum albumin at 2 mg/ml, to a final concentration of 10 μg/ml. Cell-bound primary antibodies were detected with FITC-conjugated goat anti-mouse IgM, diluted to 40 μg/ml in PBS containing 2 mg/ml bovine serum albumin.
Hapten Inhibition—Plated cells were washed twice with PBS, and were incubated for 30 min at 4° C. with 100 μl of diluted anti-H antibody, or with 100 μl of diluted antibody containing different oligosaccharide haptens, each at a concentration of 20 mM. The chambers were then washed twice, and 100 μl of FITC-conjugated goat anti-mouse IgM was added. After 30 min at 4° C., the chambers were washed three times with PBS, and the cells were fixed at room temperature for 10 min in 3.7% formaldehyde in PBS. The cells were washed twice with PBS, the chambers were removed, and the slide was mounted in PBS containing 25% glycerol. Cells were examined by fluorescence microscopy using a Zeiss Axiophot photomicroscope equipped with fluorescence epiillumination.

In experiment [4] the target is T2, (α1,2)fucosyltransferase found in human milk (Se locus) (Homo sapiens, UniProt Q10981).
T2 sequence (Q10981 29-343 limits assumed): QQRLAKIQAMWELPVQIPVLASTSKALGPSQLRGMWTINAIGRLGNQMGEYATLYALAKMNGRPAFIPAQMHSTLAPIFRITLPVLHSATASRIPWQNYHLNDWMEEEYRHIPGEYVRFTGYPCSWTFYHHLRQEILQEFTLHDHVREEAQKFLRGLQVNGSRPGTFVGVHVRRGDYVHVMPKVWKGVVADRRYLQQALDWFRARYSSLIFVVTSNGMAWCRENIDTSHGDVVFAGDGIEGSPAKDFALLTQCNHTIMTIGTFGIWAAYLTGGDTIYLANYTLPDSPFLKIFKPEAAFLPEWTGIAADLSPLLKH
The experiment can be described thus: Apparent Km for the human milk (α1,2)fucosyltransferase. In kind it is biochemical. Conditions: human milk enzyme; read-out: apparent Km for phenyl-β-D-galactoside. As to the method: (α1,2)Fucosyltransferase was isolated from human milk by published procedures. Briefly, 300 ml of milk from a Se-positive donor was defatted by centrifugation and was extensively dialyzed against 20 MM sodium cacodylate, pH 6.0. This was applied to a column (2.6×115 cm) of sulfopropyl-Sephadex equilibrated in 20 mM cacodylate, pH 6.0. The column was then washed with 1 liter of 20 mM cacodylate, pH 6.0, and was eluted with a linear gradient made from 1.5 liter each of 20 mM cacodylate, pH 6.0, and 500 mM NaCl in 20 mM cacodylate, pH 6.0. Fractions (13 ml) were collected and assayed for (α1,2)fucosyltransferase activity using phenyl-β-D-galactoside acceptor as described below. […]
Fucosyltransferase assays were performed by a modification of the procedure reported by Chester et al. (Chester et al, Eur. J. Biochem., 69: 583-593, 1976). […] The final pH value of each reaction was determined with a micro pH probe. […] The concentration of GDP-fucose in this stock solution was calculated from the UV absorbance at 254 nm of an aliquot diluted in water. […] The supernatant contained virtually 100% of the radiolabelled product; this was collected, and an aliquot was used for separation and quantitation of the fucosylated product using the hydrophobic interaction chromatography method described below. […] Intercepts were calculated by the least squares estimation method.

Experiment [5] concerns the target T3, blood group H (α1,2)fucosyltransferase (Homo sapiens, UniProt P19526).
T3 sequence (P19526 1-365): T1 sequence (P19526 1-365)
As to the kind of experiment: Apparent Km for the blood group H (α1,2)fucosyltransferase. Format: biochemical. Particulars: determined by the inventor; read-out: apparent Km for phenyl-β-D-galactoside. Here is the method:
Serum was prepared from freshly drawn blood obtained from a non-Secretor individual. The blood was clotted in a glass tube at 37° C. for 1 h and was immediately fractionated by ammonium sulfate precipitation exactly as described. The 20%-40% ammonium sulfate fraction was dialyzed against 2 changes of 4 liters of water (8 h each) at 4° C. Assay of (α1,2)fucosyltransferase was done immediately. Alternatively, the fractionated serum was aliquoted and stored at −20° C. until use.
Fucosyltransferase assays were performed by a modification of the procedure reported by Chester et al. (Chester et al, Eur. J. Biochem., 69: 583-593, 1976). […] The final pH value of each reaction was determined with a micro pH probe. […] The concentration of GDP-fucose in this stock solution was calculated from the UV absorbance at 254 nm of an aliquot diluted in water. […] The supernatant contained virtually 100% of the radiolabelled product; this was collected, and an aliquot was used for separation and quantitation of the fucosylated product using the hydrophobic interaction chromatography method described below. […] This background acceptor “activity” was always less than 3% of the radioactivity incorporated into the phenyl-β-D-galactoside acceptor. […] Intercepts were calculated by the least squares estimation method.

For experiment [6], the system named is Griffonia simplicifolia isolectin I B4 (GS I-B4). As to the kind of experiment: Hapten inhibition of FITC-GS I-B4 staining of COS-1 cells transfected with pCDM7-αGT. Format: binding. Particulars: 50 mM raffinose. Here is the method:
COS-1 cells transfected with plasmid DNAs were harvested 48-72-hr after transfection. These were stained with either fluorescein isothiocyanate-conjugated GS I-B4 at 10 μg per ml in staining media or with fluorescein isothiocyanate-conjugated GS I-B4 that had been previously incubated with 50 mM raffinose. Cells were then subjected to analysis by fluorescence-activated cell sorting as described above.

In another experiment the test system is F9 teratocarcinoma cells. As to the kind of experiment: (α1-3)GT specific activity in retinoic acid-differentiated F9 cells. Format: cell-based, mouse.

Like-named read-outs stand apart in the source and are kept apart here.

As to `Nc1ncnc2c1ncn2[C@@H]1O[C@H](COP(=O)(O)OP(=O)(O)OP(=O)(O)O)[C@@H](O)[C@H]1O` [ATP], the “inhibition of nucleotide pyrophosphatase activity” value in [1] is given as “Effective inhibition”.

In the case of `C[C@@H]1O[C@H](OP(=O)(O)OP(=O)(O)OC[C@H]2O[C@@H](n3cnc4c(=O)[nH]c(N)nc43)[C@H](O)[C@@H]2O)[C@@H](O)[C@H](O)[C@@H]1O` [GDP-fucose], the Km in [2] (COS-1 cells transfected with pH3.4, phenyl-β-D-galactoside 25 mM, read-out: apparent Km for GDP-fucose) turned out to be 17.5 µM.

In the case of `C[C@@H]1O[C@H](OP(=O)(O)OP(=O)(O)OC[C@H]2O[C@@H](n3cnc4c(=O)[nH]c(N)nc43)[C@H](O)[C@@H]2O)[C@@H](O)[C@H](O)[C@@H]1O` [GDP-β-L-fucose], in the experiment on (α1,2)fucosyltransferase, the “activity as a substrate for (α1,2)fucosyltransferase” value is “inactive”.

Turning to `C[C@H](O)[C@@H](O)[C@@H](O)[C@H](O)C=O` [L-fucose], in the experiment with α-fucosidase activity, the “inhibition of α-fucosidase activity” value is “effectively inhibited”. The “inhibition of anti-H antibody binding to mH1-12 cells by hapten” value in experiment [3] is listed as “does not inhibit”. In the experiment on (α1,2)fucosyltransferase (10 mM, reconstruction experiments with cell extracts), the “effect on (α1,2)fucosyltransferase activity” value is recorded as “does not alter the activity”.

Turning to `OC[C@H]1O[C@@H](Oc2ccccc2)[C@H](O)[C@@H](O)[C@H]1O` [phenyl-β-D-galactoside], the Km is 15100 µM in experiment [4]; 2400 µM in experiment [2] (COS-1 cells transfected with pCDM7-α(1,2)FT, GDP-[14C]fucose 3 μM, read-out: apparent Km for phenyl-β-D-galactoside); 3100 µM in experiment [5].

`OC[C@H]1O[C@H](OC[C@H]2O[C@H](O[C@]3(CO)O[C@H](CO)[C@@H](O)[C@@H]3O)[C@H](O)[C@@H](O)[C@@H]2O)[C@H](O)[C@@H](O)[C@H]1O` [raffinose]: in experiment [6], the “inhibition of GS I-B4 staining by hapten” value is given as “inhibited”.

`CC1=C(/C=C/C(C)=C/C=C/C(C)=C/C(=O)O)C(C)(C)CCC1` [retinoic acid]: the “specific activity of (α1-3)GT versus untreated F9 cells” value in the experiment with F9 teratocarcinoma cells is reported as “approximately 4 fold”.

The values above are taken from patent US20020102688A1, “Methods and products for the synthesis of oligosaccharide structures on glycoproteins, glycolipids, or as free molecules, and for the isolation of cloned genetic sequences that determine these structures” (The Regents of the University of Michigan, priority 1990, published 2002).
